Laboratory results as given in PubChem BioAssay (NCI).
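Exposure lasted 48 hours, with cells grown in 96-well plates and compounds tested at five concentrations. TGI denotes the concentration required for complete inhibition of growth.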

Legend:
Assay in all cases: growth of human tumour cells (NCI), 48 h
[1] = tested on: IGROV1 ovarian
[2] = tested on: HL-60(TB) leukemia
[3] = tested on: EKVX NSCLC
[4] = tested on: OVCAR-3 ovarian
[5] = tested on: M14 melanoma
[6] = tested on: SF-268 CNS
[7] = tested on: SK-OV-3 ovarian
[8] = tested on: NCI-H460 lung
[9] = tested on: UACC-257 melanoma
[10] = tested on: HOP-62 NSCLC
[11] = tested on: NCI/ADR-RES ovarian
[12] = tested on: OVCAR-5 ovarian
[13] = tested on: ACHN renal
[14] = tested on: T-47D breast
[15] = tested on: MDA-MB-231 breast
[16] = tested on: PC-3 prostate
[17] = tested on: SNB-75 CNS
[18] = tested on: SNB-19 CNS
[19] = tested on: TK-10 renal
[20] = tested on: RPMI-8226 leukemia
[21] = tested on: MCF7 breast
[22] = tested on: 786-0 renal
[23] = tested on: RXF 393 renal
[24] = tested on: SN12C renal
[25] = tested on: HOP-92 NSCLC
[26] = tested on: HCC-2998 colon
[27] = tested on: KM12 colon
[28] = tested on: OVCAR-8 ovarian
[29] = tested on: HCT-15 colon
[30] = tested on: MALME-3M melanoma
[31] = tested on: SW-620 colon
[32] = tested on: LOX IMVI melanoma
[33] = tested on: SF-295 CNS
[34] = tested on: NCI-H23 lung
[35] = tested on: COLO 205 colon
[36] = tested on: SK-MEL-28 melanoma
[37] = tested on: MOLT-4 leukemia
[38] = tested on: NCI-H522 lung
[39] = tested on: UACC-62 melanoma
[40] = tested on: U251 CNS
[41] = tested on: A498 renal
[42] = tested on: SK-MEL-2 melanoma
[43] = tested on: MDA-MB-435
[44] = tested on: CAKI-1 renal
[45] = tested on: HCT-116 colon
[46] = tested on: CCRF-CEM leukemia
[47] = tested on: SK-MEL-5 melanoma
[48] = tested on: DU-145 prostate
[49] = tested on: K-562 leukemia
[50] = tested on: BT-549 breast
[51] = tested on: HT29 colon
[52] = tested on: A549 NSCLC
[53] = tested on: MDA-N
[54] = tested on: UO-31 renal
[55] = tested on: OVCAR-4 ovarian
[56] = tested on: HS 578T breast
[57] = tested on: NCI-H226 lung
[58] = tested on: SF-539 CNS

O=C1/C(=C/c2cccc(Oc3ccccc3)c2)N=C(c2ccccc2)N1c1nc2ccc(Sc3ccccc3)cc2[nH]1
TGI [1]: > 100 µM
TGI [2]: 49.9 µM
TGI [3]: > 100 µM
TGI [4]: 47.7 µM
TGI [5]: 74.8 µM
TGI [6]: > 100 µM
TGI [7]: > 100 µM
TGI [8]: 64 µM
TGI [9]: 85.6 µM
TGI [10]: > 100 µM
TGI [11]: 50.4 µM
TGI [12]: > 100 µM
TGI [13]: > 100 µM
TGI [14]: > 100 µM
TGI [15]: 49.9 µM
TGI [16]: > 100 µM
TGI [17]: 60.4 µM
TGI [18]: > 100 µM
TGI [19]: 68.4 µM
TGI [20]: 56.5 µM
TGI [21]: > 100 µM
TGI [22]: > 100 µM
TGI [23]: > 100 µM
TGI [24]: 70.5 µM
TGI [25]: > 100 µM
TGI [26]: 26.3 µM
TGI [27]: > 100 µM
TGI [28]: > 100 µM
TGI [29]: > 100 µM
TGI [30]: > 100 µM
TGI [31]: > 100 µM
TGI [32]: > 100 µM
TGI [33]: 53.7 µM
TGI [34]: > 100 µM
TGI [35]: 31.5 µM
TGI [36]: > 100 µM
TGI [37]: > 100 µM
TGI [38]: 65.8 µM
TGI [39]: 74.9 µM
TGI [40]: > 100 µM
TGI [41]: 81.2 µM
TGI [42]: 38.4 µM
TGI [43]: 33.1 µM
TGI [44]: > 100 µM
TGI [45]: > 100 µM
TGI [46]: > 100 µM
TGI [47]: 75.3 µM
TGI [48]: > 100 µM
TGI [49]: > 100 µM
TGI [50]: 55 µM
TGI [51]: 63.2 µM
TGI [52]: > 100 µM
TGI [53]: 35.8 µM
TGI [54]: > 100 µM
TGI [55]: > 100 µM
TGI [56]: > 100 µM

O=C1c2ccccc2S(=O)(=O)c2ccccc21
TGI [1]: > 100 µM
TGI [2]: > 100 µM
TGI [3]: > 100 µM
TGI [57]: > 100 µM
TGI [4]: > 100 µM
TGI [5]: > 100 µM
TGI [6]: > 100 µM
TGI [7]: > 100 µM
TGI [8]: > 100 µM
TGI [9]: > 100 µM
TGI [10]: > 100 µM
TGI [11]: > 100 µM
TGI [12]: > 100 µM
TGI [13]: > 100 µM
TGI [14]: > 100 µM
TGI [15]: > 100 µM
TGI [16]: > 100 µM
TGI [17]: > 100 µM
TGI [18]: > 100 µM
TGI [19]: > 100 µM
TGI [20]: > 100 µM
TGI [21]: > 100 µM
TGI [22]: > 100 µM
TGI [23]: > 100 µM
TGI [24]: > 100 µM
TGI [25]: > 100 µM
TGI [26]: > 100 µM
TGI [27]: > 100 µM
TGI [28]: > 100 µM
TGI [29]: > 100 µM
TGI [30]: > 100 µM
TGI [31]: > 100 µM
TGI [32]: > 100 µM
TGI [33]: > 100 µM
TGI [34]: > 100 µM
TGI [35]: > 100 µM
TGI [36]: > 100 µM
TGI [37]: > 100 µM
TGI [38]: > 100 µM
TGI [39]: > 100 µM
TGI [40]: > 100 µM
TGI [41]: > 100 µM
TGI [42]: > 100 µM
TGI [43]: > 100 µM
TGI [44]: > 100 µM
TGI [45]: > 100 µM
TGI [46]: > 100 µM
TGI [47]: > 100 µM
TGI [48]: > 100 µM
TGI [49]: > 100 µM
TGI [50]: > 100 µM
TGI [51]: > 100 µM
TGI [58]: > 100 µM
TGI [52]: > 100 µM
TGI [53]: > 100 µM
TGI [54]: > 100 µM
TGI [55]: > 100 µM
TGI [56]: > 100 µM
